# Target: T1, hP2X4 (human purinergic P2X receptor subtype 4) (Homo sapiens, UniProt Q99571)
# T1 sequence (Q99571 1-404 isoform Q99571-2): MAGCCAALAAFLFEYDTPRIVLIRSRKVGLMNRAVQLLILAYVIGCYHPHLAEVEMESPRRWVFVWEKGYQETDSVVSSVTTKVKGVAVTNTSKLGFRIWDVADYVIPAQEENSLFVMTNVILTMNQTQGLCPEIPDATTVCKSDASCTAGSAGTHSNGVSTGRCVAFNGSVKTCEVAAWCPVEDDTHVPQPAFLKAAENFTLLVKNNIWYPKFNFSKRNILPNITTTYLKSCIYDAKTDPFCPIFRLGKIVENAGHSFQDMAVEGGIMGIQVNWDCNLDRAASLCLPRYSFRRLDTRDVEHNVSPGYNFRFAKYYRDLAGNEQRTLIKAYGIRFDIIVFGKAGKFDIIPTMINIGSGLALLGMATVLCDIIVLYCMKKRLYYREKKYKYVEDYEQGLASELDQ
# Experiment: FLIPR assay of intracellular calcium increase induced by activation of hP2X4 expressed in HEK293 cells (agonist BZ-ATP 2.5 μM)
# Type: cell-based
# Conditions: HEK293 cells stably expressing hP2X4, FLIPR, class symbols, read-out: P2X4 IC50
# Description: The antagonist property of the compounds disclosed herein was determined using the FLIPR (fluorescence imaging plate reader) method, wherein the compounds are inhibitors for the intracellular calcium increase induced by activation of hP2X4 (human purinergic P2X receptor subtype 4, accession No. NM_001256796.2) expressed in HEK293 cells (human renal epithelial cell line, ATCC).
# HEK293 cells stably expressing hP2X4 were cultured in DMEM high glucose medium containing 10% FBS (fetal bovine serum, Biosera, FB-1058/500), 1% penicillin-streptomycin (Gibco, 15140-122) and 1 mg/mL G418 (CABIOCHE, 345810) in a cell incubator (37° C., […]). Cells at 400,000 cells/mL were seeded into a 384-well plate (10,000 cells/well) 18-24 h prior to the FLIPR experiment and then incubated overnight in a cell incubator. On the day of the experiment, the medium was discarded and the cells were washed in an FLIPR buffer (0.3 mL of probenecid (Thermo, P36400), 0.6 mL of 1 M HEPES (Invitrogen, 15630080) and 29.1 mL of HBSS (Invitrogen, 14065056) per 30 mL of the buffer). Each well was added with 20 μL of 0.5× Calcium 6 fluorescent dye (Molecular Devices, R8190) and then the cells were subjected to dye-loading incubation at 37° C. for 1.5 h. Each well was added with 10 μL of respective test compound (dissolved in DMSO at a concentration of 10 mM and serially diluted with buffer) or vehicle and the mixture was equilibrated for 30 min at room temperature. The cell plate was then placed in the FLIPR for baseline fluorescence measurements (excitation at 485 nm and emission at 525-535 nm). An agonist (BZ-ATP (Sigma, B6396) at a final concentration of 2.5 μM) or a vehicle (ultrapure water) was then added at 10 μL/well, fluorescence values were measured for 2 min at 1-second intervals, and finally the output fluorescence counts were analyzed.
row,SMILES,IC50 [µM]
1,"CC(c1ccc(F)cc1)n1cc2c(S(N)(=O)=O)cc(NC(=O)Cc3ccccc3Cl)cc2n1 (stereo not drawn) [Compound 40-A, 2-(2-chlorophenyl)-N-(2-(1-(4-fluorophenyl)ethyl)-4-sulfamoyl-2H-indazol-6-yl)acetamide]",0.01 to 0.05
2,"CC(c1ccc(F)cc1)n1ncc2c(S(N)(=O)=O)cc(NC(=O)Cc3ccccc3Cl)cc21 (stereo not drawn) [Compound 40-B, 2-(2-chlorophenyl)-N-(1-(1-(4-fluorophenyl)ethyl)-4-sulfamoyl-1H-indazol-6-yl)acetamide]",≤ 0.01
3,"CC(C)C(=O)n1cc2c(S(N)(=O)=O)cc(NC(=O)Cc3ccccc3Cl)cc2n1 [Compound 41, 2-(2-chlorophenyl)-N-(2-isobutyryl-4-sulfamoyl-2H-indazol-6-yl)acetamide]",0.01 to 0.05
4,"NS(=O)(=O)c1cc(NC(=O)Cc2ccccc2Cl)cc2nn(C(=O)c3ccc(F)cc3)cc12 [Compound 42-A, 2-(2-chlorophenyl)-N-(2-(4-fluorobenzoyl)-4-sulfamoyl-2H-indazol-6-yl)acetamide]",0.01 to 0.05
5,"NS(=O)(=O)c1cc(NC(=O)Cc2ccccc2Cl)cc2c1cnn2C(=O)c1ccc(F)cc1 [Compound 42-B, 2-(2-chlorophenyl)-N-(1-(4-fluorobenzoyl)-4-sulfamoyl-1H-indazol-6-yl)acetamide]",0.2 to 5
6,"NS(=O)(=O)c1cc(NC(=O)Cc2ccccc2Cl)cc2c1cnn2C(F)F [Compound 43, 2-(2-chlorophenyl)-N-(1-(difluoromethyl)-4-sulfamoyl-1H-indazol-6-yl)acetamide]",0.01 to 0.05
7,"NS(=O)(=O)c1cc(NC(=O)Cc2ccccc2Cl)cc2c1cnn2-c1ccc(Cl)cc1 [Compound 45, 2-(2-chlorophenyl)-N-(1-(4-chlorophenyl)-4-sulfamoyl-1H-indazol-6-yl)acetamide]",0.01 to 0.05
8,"CN(C)c1cccc(Cn2ncc3c(S(N)(=O)=O)cc(NC(=O)Cc4ccccc4Cl)cc32)c1 [Compound 46, 2-(2-chlorophenyl)-N-(1-(3-(dimethylamino)benzyl)-4-sulfamoyl-1H-indazol-6-yl)acetamide]",0.01 to 0.05
9,"NS(=O)(=O)c1cc(NC(=O)Cc2ccccc2Cl)cc2cn(CCO)nc12 [Compound 48-A, 2-(2-chlorophenyl)-N-(2-(2-hydroxyethyl)-7-sulfamoyl-2H-indazol-5-yl)acetamide]",0.2 to 5
10,"NS(=O)(=O)c1cc(NC(=O)Cc2ccccc2Cl)cc2cnn(CCO)c12 [Compound 48-B, 2-(2-chlorophenyl)-N-(1-(2-hydroxyethyl)-7-sulfamoyl-1H-indazol-5-yl)acetamide]",0.2 to 5
11,"NS(=O)(=O)c1cc(NC(=O)Cc2ccccc2Cl)cc2cnn(C(F)F)c12 [Compound 50, 2-(2-chlorophenyl)-N-(1-(difluoromethyl)-7-sulfamoyl-1H-indazol-5-yl)acetamide]",0.05 to 0.2
12,"NS(=O)(=O)c1cc(NC(=O)Cc2ccccc2Cl)cc2nc(C3CC3)[nH]c12 [Compound 52, 2-(2-chlorophenyl)-N-(2-cyclopropyl-7-sulfamoyl-1H-benzo[d]imidazol-5-yl)acetamide]",0.2 to 5
13,"NS(=O)(=O)c1cc(NC(=O)Cc2ccccc2Cl)cc2nc(-c3ccc(Cl)cc3)[nH]c12 [Compound 54, 2-(2-chlorophenyl)-N-(2-(4-chlorophenyl)-7-sulfamoyl-1H-benzo[d]imidazol-5-yl)acetamide]",0.2 to 5
14,"NS(=O)(=O)c1cc(NC(=O)Cc2ccccc2Cl)cc2c1ncn2-c1ccc(Cl)cc1 [Compound 55, 2-(2-chlorophenyl)-N-(1-(4-chlorophenyl)-4-sulfamoyl-1H-benzo[d]imidazol-6-yl)acetamide]",0.01 to 0.05
15,"NS(=O)(=O)c1cc(NC(=O)Cc2ccccc2Cl)cc2[nH]ccc12 [Compound 56, 2-(2-chlorophenyl)-N-(4-sulfamoyl-1H-indol-6-yl)acetamide]",0.01 to 0.05
16,"CC(C)C(=O)n1ncc2c(S(N)(=O)=O)cc(NC(=O)Cc3ccccc3Cl)cc21 [Compound 58, 2-(2-chlorophenyl)-N-(1-isobutyryl-4-sulfamoyl-1H-indazol-6-yl)acetamide]",0.2 to 5
17,"NS(=O)(=O)c1cc(NC(=O)Cc2ccccc2Cl)cc2nn(C3COC3)cc12 [Compound 59, 2-(2-chlorophenyl)-N-(2-(oxetan-3-yl)-4-sulfamoyl-2H-indazol-6-yl)acetamide]",0.2 to 5

row,SMILES,IC50 [µM]
1,"NS(=O)(=O)c1cc(NC(=O)Cc2ccccc2Cl)cc2c1c(Cl)nn2-c1ccc(F)cc1 [Compound 75, N-(3-chloro-1-(4-fluorophenyl)-4-sulfamoyl-1H-indazol-6-yl)-2-(2-chlorophenyl)acetamide]",0.2 to 5
2,COc1ccc(Cn2cc3c(S(N)(=O)=O)cc(NC(=O)Cc4ccccc4Cl)cc3n2)cc1F [Compound 82],≤ 0.01
3,"COc1ccc(Cn2ncc3c(S(N)(=O)=O)cc(NC(=O)Cc4ccccc4Cl)cc32)c(F)c1 [Compound 83, 2-(2-chlorophenyl)-N-(1-(2-fluoro-4-methoxybenzyl)-4-sulfamoyl-1H-indazol-6-yl)acetamide]",≤ 0.01
4,COc1ccc(Cn2cc3c(S(N)(=O)=O)cc(NC(=O)Cc4ccccc4Cl)cc3n2)c(F)c1 [Compound 85],≤ 0.01
5,COc1ccc(Cn2cc3c(S(N)(=O)=O)cc(NC(=O)Cc4ccccc4Cl)cc3n2)c(Cl)c1 [Compound 86],≤ 0.01
6,COc1ccc(Cn2cc3c(S(N)(=O)=O)cc(NC(=O)Cc4ccccc4Cl)cc3n2)c(Br)c1 [Compound 87],≤ 0.01
7,"NS(=O)(=O)c1cc(NC(=O)Cc2ccccc2Cl)cc2c1cnn2Cc1ccc(Cl)cc1 [Compound 89A, N-(1-(4-chlorobenzyl)-4-sulfamoyl-1H-indazol-6-yl)-2-(2-chlorophenyl)acetamide]",≤ 0.01
8,"NS(=O)(=O)c1cc(NC(=O)Cc2ccccc2Cl)cc2nn(Cc3ccc(C(F)(F)F)cc3)cc12 [Compound 90, 2-(2-chlorophenyl)-N-(4-sulfamoyl-2-(4-(trifluoromethyl)benzyl)-2H-indazol-6-yl)acetamide]",≤ 0.01
9,"Cc1ccc(Cn2cc3c(S(N)(=O)=O)cc(NC(=O)Cc4ccccc4Cl)cc3n2)cc1 [Compound 92, 2-(2-chlorophenyl)-N-(2-(4-methylbenzyl)-4-sulfamoyl-2H-indazol-6-yl)acetamide]",≤ 0.01
10,"Cc1ccc(Cn2ncc3c(S(N)(=O)=O)cc(NC(=O)Cc4ccccc4Cl)cc32)cc1 [Compound 92A, 2-(2-chlorophenyl)-N-(1-(4-methylbenzyl)-4-sulfamoyl-1H-indazol-6-yl)acetamide]",≤ 0.01
11,COc1ccc(Cn2cc3c(S(N)(=O)=O)cc(NC(=O)Cc4ccccc4Cl)cc3n2)nc1 [Compound 93],≤ 0.01
12,COc1ccc(Cn2cc3c(S(N)(=O)=O)cc(NC(=O)Cc4ccccc4Cl)cc3n2)cn1 [Compound 94],≤ 0.01
13,"Nc1ccc(Cn2cc3c(S(N)(=O)=O)cc(NC(=O)Cc4ccccc4Cl)cc3n2)cc1 [Compound 95, N-(2-(4-aminobenzyl)-4-sulfamoyl-2H-indazol-6-yl)-2-(2-chlorophenyl)acetamide]",≤ 0.01
14,"Nc1ccc(Cn2ncc3c(S(N)(=O)=O)cc(NC(=O)Cc4ccccc4Cl)cc32)cc1 [Compound 95A, N-(1-(4-aminobenzyl)-4-sulfamoyl-1H-indazol-6-yl)-2-(2-chlorophenyl)acetamide]",≤ 0.01
15,NS(=O)(=O)c1cc(NC(=O)Cc2ccccc2Cl)cc2nn(CC3CCC(O)CC3)cc12 (stereo not drawn) [Compound 108],0.05 to 0.2
16,"NS(=O)(=O)c1cc(NC(=O)Cc2ncccc2Cl)cc2nn(C(F)F)cc12 [Compound 113, 2-(3-chloropyridin-2-yl)-N-(2-(difluoromethyl)-4-sulfamoyl-2H-indazol-6-yl)acetamide]",0.2 to 5
17,"COc1ccccc1CC(=O)Nc1cc(S(N)(=O)=O)c2cn(C(F)F)nc2c1 [Compound 115, N-(2-(difluoromethyl)-4-sulfamoyl-2H-indazol-6-yl)-2-(2-methoxyphenyl)acetamide]",0.2 to 5

# Same assay, conditions: HEK293 cells stably expressing hP2X4, FLIPR, numeric values, read-out: P2X4 IC50
row,SMILES,IC50 [µM]
1,"NS(=O)(=O)c1cc(NC(=O)Cc2ccccc2Cl)cc2cn(C(F)F)nc12 [Compound 49, 2-(2-chlorophenyl)-N-(2-(difluoromethyl)-7-sulfamoyl-2H-indazol-5-yl)acetamide]",0.0895
2,"N#Cc1nc2c(S(N)(=O)=O)cc(NC(=O)Cc3ccccc3Cl)cc2[nH]1 [Compound 51, 6-(2-chlorophenylacetamide)-2-nitrile-4-sulfonamide benzimidazole]",0.934
